Experimental data from patent US20140296170A1, “PHARMACEUTICAL COMPOSITION FOR PREVENTION OR TREATMENT OF BONE DISEASES COMPRISING SPINASTEROL GLUCOSIDE DERIVATIVE” (Lifetree Biotech Co., Ltd., priority 2013, published 2014).

Columns and labels:
[1] = tested on: collagen-induced arthritis in DBA1/J mice; experiment: Collagen-induced arthritis model in DBA1/J mice; type: in vivo; conditions: FIG. 1
[2] = tested on: cartilage of SD rats (osteoblast defected (OD) models); experiment: Cartilage regeneration in osteoblast defected (OD) models; type: in vivo; conditions: 1 mg/kg orally once every two days for 4 weeks
Experimental: The cartilage regeneration activity of spinasterol glucoside derivatives were evaluated in osteoblast defected (OD) models which were widely used in study on the regeneration of degenerative articular cartilage. The cartilage of SD rats, at least 9 weeks of age, was destroyed by a […] drill, followed by suturing the muscle and lipid tissues so as to allow them to go about normal daily life. Then, 3-o-β-D-glucopyranosyl-spinasterol dissolved in distilled water was orally administered at a dose of 1 mg/kg once every two days for 4 weeks. Afterwards, the animals were sacrificed, and opened around the knee to take articular cartilage tissues, followed by decalcification for 4 weeks. The cartilage tissues thus softened were paraffinized, and dyed with Safran O solution to visualize the regeneration of the cartilage.

## CC[C@H](/C=C/[C@@H](C)[C@H]1CC[C@H]2C3=CC[C@H]4C[C@@H](O[C@@H]5O[C@H](CO)[C@@H](O)[C@H](O)[C@H]5O)CC[C@]4(C)[C@H]3CC[C@]12C)C(C)C [3-o-β-D-glucopyranosyl-spinasterol]
[1]; CII/CFA immunization, 10 μM/kg of weight three times a week for 28 days, observed 42 days later, compared to the positive control (CIA)
  degree of collagen-induced arthritis (clinical severity by paw swelling, verified by micro-CT morphometry): reduced in the degree of collagen-induced arthritis
[1]; collagen-induced arthritis, 10 μM/kg three times a week for 28 days
  regeneration of cartilage at the worn joint: showed regeneration of cartilage at the worn joint
[2]; SD rats OD model
  levels of chondrocytes: greatly increased levels
  levels of mast cells: greatly increased levels
  levels of mucin: greatly increased levels
[2]; SD rats, cartilage destroyed by drill, compared to the control (b), FIG. 2
  regeneration of cartilage tissues (Safran O staining): significant regeneration of cartilage tissues
